Values after ≈ are worked out from the molar mass of the structure shown. Active and inactive are the calls of the source. The calls are words filed in the database; no cut-off is given here.
Legend:
KMS-11 [1] = test: Induction of primary alkylamine-tethering degradation of NSD2 in human KMS-11 cells at 1 to 4 uM by Western blot analysis; type: cell-based; details: dose 1-4 µM
[2] = Metabolic stability in human liver microsomes assessed as hepatic extraction ratio at 1 uM preincubated for 5 mins followed by NADPH addition measured for 5 to 60 mins by LC-MS/MS analysis; type: ADME, Microsome; details: time 10-65 min, read-out: ERH
[3] = Metabolic stability in human liver microsomes assessed as hepatic clearance at 1 uM preincubated for 5 mins followed by NADPH addition measured for 5 to 60 mins by LC-MS/MS analysis; type: ADME, Microsome; details: time 10-65 min
KMS-11 [4] = test: Antiproliferative activity against human KMS-11 cells assessed as inhibition of cell viability incubated for 8 to 12 days by Cell Titer Glo assay; type: functional, cell-based
[5] = Metabolic stability in human liver microsomes assessed as half life at 1 uM preincubated for 5 mins followed by NADPH addition measured for 5 to 60 mins by LC-MS/MS analysis; type: ADME, Microsome; details: time 10-65 min
[6] = Solubility of compound in water measured after 4 hrs by HPLC analysis; type: physicochemical
[7] = Antiproliferative activity against HEK293T cells assessed as inhibition of cell viability incubated for 8 to 12 days by Cell Titer Glo assay; type: toxicity, cell-based, HEK-293T; details: human
[8] = biological target: von Hippel-Lindau disease tumor suppressor/Histone-lysine N-methyltransferase NSD2 (Homo sapiens) (UniProt O96028+P40337); test: PROTAC activity at VHL/NSD2 in human KMS-11 cells assessed as induction of protein degradation upto 50 uM by Western blot analysis; type: cell-based
von Hippel-Lindau disease tumor suppressor/Histone-lysine N-methyltransferase NSD2 (Homo sapiens), sequence (P40337 whole entry, looked up, one chain of several): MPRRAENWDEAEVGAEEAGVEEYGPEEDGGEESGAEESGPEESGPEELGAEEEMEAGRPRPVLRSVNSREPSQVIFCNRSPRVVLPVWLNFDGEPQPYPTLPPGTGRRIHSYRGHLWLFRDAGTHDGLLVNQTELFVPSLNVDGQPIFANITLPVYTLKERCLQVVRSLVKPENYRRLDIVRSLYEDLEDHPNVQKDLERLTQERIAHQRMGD

[9] = biological target: T1, Histone-lysine N-methyltransferase NSD2 (Homo sapiens, UniProt O96028); test: Binding affinity to CM5 chip-immobilizes NSD2 (unknown origin) assessed as dissociation constant by SPR analysis
T1 sequence (O96028 whole entry): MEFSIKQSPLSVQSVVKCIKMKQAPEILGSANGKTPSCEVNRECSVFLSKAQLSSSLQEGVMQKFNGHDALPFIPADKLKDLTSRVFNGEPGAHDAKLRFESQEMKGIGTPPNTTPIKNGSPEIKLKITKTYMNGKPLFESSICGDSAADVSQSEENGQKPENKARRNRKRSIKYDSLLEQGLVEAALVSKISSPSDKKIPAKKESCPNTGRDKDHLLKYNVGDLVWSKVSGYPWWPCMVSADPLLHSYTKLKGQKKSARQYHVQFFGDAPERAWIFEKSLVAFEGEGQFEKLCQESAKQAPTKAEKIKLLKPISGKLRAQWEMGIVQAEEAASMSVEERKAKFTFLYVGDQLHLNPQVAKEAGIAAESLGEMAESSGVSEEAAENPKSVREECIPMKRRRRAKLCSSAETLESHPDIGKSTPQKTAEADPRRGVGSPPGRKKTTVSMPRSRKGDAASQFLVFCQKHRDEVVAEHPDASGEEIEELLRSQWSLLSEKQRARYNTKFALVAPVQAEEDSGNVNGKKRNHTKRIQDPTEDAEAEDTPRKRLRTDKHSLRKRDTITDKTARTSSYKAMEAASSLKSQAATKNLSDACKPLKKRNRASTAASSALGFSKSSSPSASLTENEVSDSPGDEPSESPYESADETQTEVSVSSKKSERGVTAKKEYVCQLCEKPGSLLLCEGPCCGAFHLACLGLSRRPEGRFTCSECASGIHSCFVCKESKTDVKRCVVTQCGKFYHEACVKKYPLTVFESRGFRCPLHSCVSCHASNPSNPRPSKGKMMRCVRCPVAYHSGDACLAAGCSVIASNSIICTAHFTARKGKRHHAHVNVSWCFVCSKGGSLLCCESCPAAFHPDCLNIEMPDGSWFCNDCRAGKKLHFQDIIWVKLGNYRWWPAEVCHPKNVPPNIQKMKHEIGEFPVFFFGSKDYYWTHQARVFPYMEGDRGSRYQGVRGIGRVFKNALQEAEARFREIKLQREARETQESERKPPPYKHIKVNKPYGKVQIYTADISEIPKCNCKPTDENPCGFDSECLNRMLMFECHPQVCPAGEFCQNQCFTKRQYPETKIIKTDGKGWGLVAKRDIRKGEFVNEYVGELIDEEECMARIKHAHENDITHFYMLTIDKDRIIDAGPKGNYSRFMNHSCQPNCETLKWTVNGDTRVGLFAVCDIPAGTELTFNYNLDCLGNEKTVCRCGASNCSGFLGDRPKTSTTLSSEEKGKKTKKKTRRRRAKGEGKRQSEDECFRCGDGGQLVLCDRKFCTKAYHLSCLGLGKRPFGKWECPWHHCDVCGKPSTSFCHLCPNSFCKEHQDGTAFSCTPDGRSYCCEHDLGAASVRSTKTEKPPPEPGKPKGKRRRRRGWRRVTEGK

KMS-11 [10] = test: Induction of primary alkylamine-tethering degradation of NSD2 in human KMS-11 cells at 0.1 to 2 uM by Western blot analysis; type: cell-based; details: dose 0.1-2 µM
KMS-11 [11] = test: Induction of primary alkylamine-tethering degradation of NSD2 in human KMS-11 cells assessed as decrease in RRAS2 mRNA level at 1.25 to 2.5 uM incubated for 2 days by qPCR analysis; type: cell-based; details: dose 1.25-2.5 µM, time 2.0 day
KMS-11 [12] = test: Induction of primary alkylamine-tethering degradation of NSD2 in human KMS-11 cells assessed as decrease in IGF2BP2 mRNA level at 1.25 to 2.5 uM incubated for 2 days by qPCR analysis; type: cell-based; details: dose 1.25-2.5 µM, time 2.0 day
KMS-11 [13] = test: Induction of primary alkylamine-tethering degradation of NSD2 in human KMS-11 cells assessed as decrease in PAK1 mRNA level at 1.25 to 2.5 uM incubated for 2 days by qPCR analysis; type: cell-based; details: dose 1.25-2.5 µM, time 2.0 day
22Rv1 = test: Induction of primary alkylamine-tethering degradation of NSD2 in human 22Rv1 cells assessed as decrease in H3K36 methylation upto 8 uM by Western blot analysis; type: cell-based
KMS-11 [14] = test: Induction of primary alkylamine-tethering degradation of NSD2 Long isoform in human KMS-11 cells at 0.1 to 2 uM by Western blot analysis; type: cell-based; details: dose 0.1-2 µM
[15] = biological target: T2, Histone-lysine N-methyltransferase NSD2 (Homo sapiens) (UniProt O96028); test: Induction of primary alkylamine-tethering degradation of NSD2 RE-IIBP isoform in human KMS-11 cells upto 5 uM by Western blot analysis; type: cell-based
T2 sequence (whole entry): T1 sequence (O96028 whole entry)

KMS-11 [16] = test: (§1) Induction of primary alkylamine-tethering degradation of NSD2 Long isoform in human KMS-11 cells by Western blot analysis; type: cell-based; details: dose <= 5.0 µM
[17] = as §1; type: cell-based
[18] = biological target: T2, Histone-lysine N-methyltransferase NSD2 (Homo sapiens); test: Induction of primary alkylamine-tethering degradation of NSD2 RE-IIBP isoform in human KMS-11 cells at 0.1 to 2 uM by Western blot analysis; type: cell-based; details: dose 0.1-2 µM
KMS-11 [19] = test: Induction of primary alkylamine-tethering degradation of NSD1 in human KMS-11 cells at 0.1 to 2 uM by Western blot analysis; type: cell-based; details: dose 0.1-2 µM
KMS-11 [20] = test: Induction of primary alkylamine-tethering degradation of NSD2 in human KMS-11 cells at 5 uM by Western blot analysis; type: cell-based; details: time 6-48 hrs
KMS-11 [21] = test: Induction of primary alkylamine-tethering degradation of NSD2 in human KMS-11 cells assessed as decrease in CR2 mRNA level at 1.25 to 2.5 uM incubated for 2 days by qPCR analysis; type: cell-based; details: dose 1.25-2.5 µM, time 2.0 day
KMS-11 [22] = test: Induction of primary alkylamine-tethering degradation of NSD2 in human KMS-11 cells assessed as decrease in MET mRNA level at 1.25 to 2.5 uM incubated for 2 days by qPCR analysis; type: cell-based; details: dose 1.25-2.5 µM, time 2.0 day
KMS-11 [23] = test: Induction of primary alkylamine-tethering degradation of NSD2 in human KMS-11 cells assessed as decrease in CA2 mRNA level at 1.25 to 2.5 uM incubated for 2 days by qPCR analysis; type: cell-based; details: dose 1.25-2.5 µM, time 2.0 day
KMS-11 [24] = test: Induction of primary alkylamine-tethering degradation of NSD2 in human KMS-11 cells assessed as decrease in H3K36 methylation upto 2.5 uM by Western blot analysis; type: cell-based
KMS-11 [25] = test: Induction of primary alkylamine-tethering degradation of NSD3 in human KMS-11 cells at 0.1 to 2 uM by Western blot analysis; type: cell-based; details: dose 0.1-2 µM
KMS-11 [26] = test: Induction of primary alkylamine-tethering degradation of NSD2 Long isoform in human KMS-11 cells upto 5 uM by Western blot analysis; type: cell-based
KMS-11 [27] = test: Induction of primary alkylamine-tethering degradation of NSD2 in human KMS-11 cells assessed as decrease in BACE2 mRNA level at 1.25 to 2.5 uM incubated for 2 days by qPCR analysis; type: cell-based; details: dose 1.25-2.5 µM, time 2.0 day
KMS-11 [28] = test: Induction of primary alkylamine-tethering degradation of NSD2 in human KMS-11 cells assessed as decrease in JAM2 mRNA level at 1.25 to 2.5 uM incubated for 2 days by qPCR analysis; type: cell-based; details: dose 1.25-2.5 µM, time 2.0 day
[29] = biological target: T2, Histone-lysine N-methyltransferase NSD2 (Homo sapiens); test: (§2) Induction of primary alkylamine-tethering degradation of NSD2 RE-IIBP isoform in human KMS-11 cells by Western blot analysis; type: cell-based; details: dose <= 5.0 µM
[30] = biological target: T1, Histone-lysine N-methyltransferase NSD2; test: as §2; type: cell-based

## NCCCNC(=O)COc1cc(-c2cc(Cn3cnc4c(N)ncnc43)c(N3CCC[C@](N)(CC(F)F)C3)cn2)ccc1F
KMS-11 [1]
  Activity: inactive

## NCCCCCCCCCCCCNC(=O)COc1cc(-c2cc(Cn3cnc4c(N)ncnc43)c(N3CCC[C@](N)(CC(F)F)C3)cn2)ccc1F
KMS-11 [1]
  Activity: inactive

## Nc1ncnc2c1ncn2Cc1cc(-c2ccc(F)c(F)c2)ncc1N1CCC[C@](N)(CC(F)F)C1
[2]
  hepatic extraction ratio at 1 µM: 0.898
[3]
  CLhep predicted at 1 µM: 1.12 L/h/kg
KMS-11 [4]
  IC50: 4.7 µM
[5]
  half-life at 1 µM: 22.3 min
[6]
  solubility at 4 h: 0.49 mg/mL (≈ 979 µM)
[7]
  IC50: 8.45 µM

## Cc1ncsc1-c1ccc([C@H](C)NC(=O)[C@@H]2C[C@@H](O)CN2C(=O)[C@@H](NC(=O)CCCCCCCCCCCNC(=O)COc2cc(-c3cc(Cn4cnc5c(N)ncnc54)c(N4CCCC(N)(CC(F)F)C4)cn3)ccc2F)C(C)(C)C)cc1 (some centres not stated)
[8]
  Activity: Active

## Nc1ncnc2c1ncn2Cc1cc(-c2ccc(F)c(OCC(=O)NCCCCCCCCCCCNC(=O)c3ccccc3)c2)ncc1N1CCC[C@](N)(CC(F)F)C1
KMS-11 [1]
  Activity: Not active; Exhibited Minimal Activity

## NCCCCCCCCCCCNC(=O)COc1cc(-c2cc(Cn3cnc4c(N)ncnc43)c(N3CCC[C@@](N)(CC(F)F)C3)cn2)ccc1F
[9]
  Kd: > 100 µM
KMS-11 [10]
  Activity: inactive

## CNCCCCCCCCCCCNC(=O)COc1cc(-c2cc(Cn3cnc4c(N)ncnc43)c(N3CCC[C@](N)(CC(F)F)C3)cn2)ccc1F
KMS-11 [1]
  Activity: Not active; Exhibited Minimal Activity

## NCCCCCNC(=O)COc1cc(-c2cc(Cn3cnc4c(N)ncnc43)c(N3CCC[C@](N)(CC(F)F)C3)cn2)ccc1F
KMS-11 [1]
  Activity: inactive

## NCCCCCCCCCNC(=O)COc1cc(-c2cc(Cn3cnc4c(N)ncnc43)c(N3CCC[C@](N)(CC(F)F)C3)cn2)ccc1F
KMS-11 [1]
  Activity: inactive

## NCCCCCCCCCCCNC(=O)COc1cc(-c2cc(Cn3cnc4c(N)ncnc43)c(N3CCC[C@](N)(CC(F)F)C3)cn2)ccc1F
KMS-11 [11]
  Activity: Active
KMS-11 [12]
  Activity: Active
KMS-11 [13]
  Activity: Active
[2]
  hepatic extraction ratio at 1 µM: 0.973
[9]
  Kd: 8.77 µM
[3]
  CLhep predicted at 1 µM: 1.21 L/h/kg
KMS-11 [4]
  IC50: 0.9 µM
22Rv1
  Activity: Active
KMS-11 [14]
  Activity: Active
[15]
  Activity: 80%
KMS-11 [16]
  Activity: Dose-dependent-effect
[17]
  DC50: 1.48 µM
[5]
  half-life at 1 µM: 5.37 min
[6]
  solubility at 4 h: 0.47 mg/mL (≈ 648 µM)
[18]
  Activity: Active
KMS-11 [19]
  Activity: Not active; Exhibited Moderate Degradation
KMS-11 [20]
  Activity: Time-dependent-effect
KMS-11 [21]
  Activity: Active
KMS-11 [22]
  Activity: Active
KMS-11 [23]
  Activity: Active
KMS-11 [24]
  Activity: Active
KMS-11 [25]
  Activity: inactive
KMS-11 [26]
  Activity: 80%
[7]
  IC50: > 100 µM
KMS-11 [27]
  Activity: Active
KMS-11 [28]
  Activity: Active
KMS-11 [10]
  Activity: Active
[29]
  Activity: Dose-dependent-effect
[30]
  DC50: 0.8 µM

## NCCCCCCCNC(=O)COc1cc(-c2cc(Cn3cnc4c(N)ncnc43)c(N3CCC[C@](N)(CC(F)F)C3)cn2)ccc1F
KMS-11 [1]
  Activity: inactive

## NCCCCCCNC(=O)COc1cc(-c2cc(Cn3cnc4c(N)ncnc43)c(N3CCC[C@](N)(CC(F)F)C3)cn2)ccc1F
KMS-11 [1]
  Activity: inactive

## NCCCCCCCCCCCNC(=O)COc1cc(-c2cc(Cn3cnc4c(N)ncnc43)c(N3CCCC(N)(CC(F)F)C3)cn2)ccc1F (racemic)
KMS-11 [1]
  Activity: Active
